Two compounds from US20110070213A1, “DERMAL COMPOSITIONS CONTAINING COENZYME Q AS THE ACTIVE INGREDIENT” (KANEKA CORPORATION, priority 2000, published 2011) can be followed below.

The structures appear in SMILES notation.

One data set concerns incision wound. The experiment in a line: Incised wound healing test in rats. It is filed as in vivo, SD rats. The conditions noted are these: 1% ointment, 0.2 g/day for 4 days; four days after incision. The source says:
SD rats (male, 12-week-old) were clipped of hairs and divided into groups of 10 animals to make the mean body weights of the groups roughly the same, and subjected to the test. Each animal was given an incision wound along the median line under diethyl ether anesthesia. The incision wound was stapled at three sites using Michel's clips, and a 1% oxidized coenzyme Q10 ointment or a 1% reduced coenzyme Q10 ointment was applied at a dose of 0.2 g/day for 4 days. Two control groups, namely a nontreated group and an ointment base group treated with the same dose of the ointment base, were used. Three days after incision, the Michel's clips were removed and, four days after incision, each animal was euthanized by overanesthesia with diethyl ether, the skin around the incision was peeled off, and skin sections were prepared. The skin sections were measured for tension on a tensile tester.

A short description of data set [1]: Percutaneous absorption test (coenzyme Q10 in skin after dermal application). It is filed as in vivo, hairless rats. The conditions noted are these: for Coenzyme Q10 concentration in skin / Reduced coenzyme Q10 concentration in skin: mean ± SD. As to the method: The test sample 1 and comparative sample 1 were used as test substances. The test was carried out using male hairless rats (weighing 250 to 300 g) fed under well-fed conditions. A 0.1-g portion of the test sample 1, comparative sample 1, or PEG 1500 as a control was applied to an area of 3 cm square on the back of each hairless rat lightly anesthetized with ether. Three hours, 8 hours or 24 hours after application, the rat was sacrificed by euthanasia, the applied area was washed thoroughly, and a skin sample was taken. The skin sample was homogenized and extracted with propanol, the extract was concentrated using a solid phase column, and the amount of coenzyme Q10 in the skin was determined by high-performance liquid chromatography.
Each of the skin samples mentioned above was homogenized and extracted with hexane, the extract was evaporated to dryness and dissolved in ethanol, and the proportion of reduced coenzyme Q10 in skin was determined by high-performance liquid chromatography with an electrochemical detector. Each numerical value means the mean±standard deviation.
The test was carried out in the same manner as in Example 1 using the test samples 2, 3, 4 and 5 as well as the comparative sample 1 as test samples.
In FIG. 1, the vertical axis denotes the total amount of coenzyme Q10 and the amount of reduced coenzyme Q10 in skin at 3 hours after application, and the horizontal axis denotes the content (% by weight) of reduced coenzyme Q10 relative to the total amount of coenzyme Q10 in the sample applied. Each bar indicates the mean value.

The mark [2] stands for this setting: as compared with 100% oxidized coenzyme Q10.

Take `COC1=C(OC)C(=O)C(C/C=C(\C)CC/C=C(\C)CC/C=C(\C)CC/C=C(\C)CC/C=C(\C)CC/C=C(\C)CC/C=C(\C)CC/C=C(\C)CC/C=C(\C)CCC=C(C)C)=C(C)C1=O` [Oxidized coenzyme Q10, oxidized coenzyme Q10, reference compound]: the “Skin repair (tension of skin sections on a tensile tester, in words)” value in the data set on incision wound is “skin repair promoting effect”.

Consider `COc1c(O)c(C)c(C/C=C(\C)CC/C=C(\C)CC/C=C(\C)CC/C=C(\C)CC/C=C(\C)CC/C=C(\C)CC/C=C(\C)CC/C=C(\C)CC/C=C(\C)CCC=C(C)C)c(O)c1OC` [Reduced coenzyme Q10, reduced coenzyme Q10], for which the “Skin repair (tension of skin sections on a tensile tester, in words)” value in the data set with incision wound is recorded as “skin repair promoting effect”. Further, the “Coenzyme Q10 concentration in skin, relative value in parentheses (oxidized coenzyme Q10 = 100)” value in data set [1] (3 hr) is “(165***)”; in data set [1] (8 hr) it was “(228*)”; in data set [1] (24 hr), “(206*)”. Besides, the figures for the “Reduced coenzyme Q10 concentration in skin, relative value in parentheses (oxidized coenzyme Q10 = 100)” value in data set [1] (3 hr), in data set [1] (8 hr) and in data set [1] (24 hr) were “(414***)”, “(317**)” and “(239*)”, respectively. The “Coenzyme Q10 concentration in skin” value in data set [1] (3 hr after application of 0.1 g PEG 1500 ointment (0.1 g coenzyme Q10 per 10 ml) to 3 cm square back skin) came to 13.72 ± 0.70 µg/g; in data set [1] (8 hr after application of 0.1 g PEG 1500 ointment to back skin), 17.96 ± 4.85 µg/g; in data set [1] (24 hr after application of 0.1 g PEG 1500 ointment to back skin), 15.68 ± 3.95 µg/g. In addition, the “Reduced coenzyme Q10 concentration in skin” value in data set [1] (3 hr after application, HPLC with electrochemical detector) was found to be 12.55 ± 0.51 µg/g; in data set [1] (8 hr after application), 15.84 ± 4.56 µg/g; in data set [1] (24 hr after application) it was 12.99 ± 4.81 µg/g. Also, the “Increase of the amount of coenzyme Q10 in skin (in words)” value in data set [1] (setting [2]) is reported as “very effective in increasing the amount of coenzyme Q10 in skin”. Besides, the “Increase of the amount of reduced coenzyme Q10 in skin (in words)” value in data set [1] (setting [2]) is recorded as “very effective in increasing the amount of reduced coenzyme Q10 in skin”.
